Assay results as given in publication PMC8113240 (Scientific Reports, 2021).

Target: T1, FK506 binding protein 12 (FKBP12) (Homo sapiens, UniProt P42345+P62942)
T1 construct: gene FKBP1A; pAsh-FKBP12 co-transfected with phAG-mTOR in HeLa cells; with mTOR
Assay: Fluoppi cell assay of FKBP12-mTOR ternary complex formation in HeLa cells
Assay type: cell-based

T1 sequence (P62942 2-108, other chains not shown): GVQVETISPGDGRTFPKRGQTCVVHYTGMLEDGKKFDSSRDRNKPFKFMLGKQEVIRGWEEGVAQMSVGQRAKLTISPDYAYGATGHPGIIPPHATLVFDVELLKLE

Work on COC1CC(O)CC(=O)CC(=O)N2CCCCC2C(=O)OC(C(C)CC2CCC(O)C(OC)C2)CC(=O)C(C)C=C(C)C(O)C(OC)C(=O)C(C)CC(C)C=CC=CC=C1C (mixture of isomers) [compound 1, 1] yielded an EC50 of 1880 nM.
